Measured values: patent publication US8034940B2, “Modulators of glucocorticoid receptor, AP-1, and/or NF-κB activity and use thereof” (Bristol-Myers Squibb Company, priority 2006, dated 2011)

Tested on: AP-1 induced transcriptional activity
Test: Cellular Transrepressional Assay (AP-1 luciferase reporter, PMA-activated A549 cells)
Format: cell-based
Details: for AP-1 Max % inh (Cellular Transrepression Assay) / Emax: maximum inhibition; for Emax: A549, 7 h, read-out: AP-1 Max % inh (Cellular Transrepression Assay)
Description: Cellular Transrepressional Assay
To measure the ability of test molecules to inhibit AP-1 induced transcriptional activity we utilized an A549 cell which was stably transfected with a plasmid containing 7× AP-1 DNA binding sites (pAP-1-Luc plasmid, Stratagene Co. La Jolla, Calif.) followed by the gene for luciferase. Cells were activated with 10 ng/ml of […] (PMA) plus or minus test molecules for 7 hours. After 7 hours a luciferase reagent was added to measure luciferase enzymatic activity in the cell. After a 10 minute incubation of luciferase reagent with cells, luminescence was measured in a TopCount luminescence counter. Repression of AP-1 activity was calculated as the percentage decrease in the signal induced by PMA alone. Test molecules were analyzed in the concentration range from 0.1 nM to 40 μM. EC50s were determined by using standard curve fitting methods such as Excel fit (Microsoft Co.).

[1] = Homo sapiens, Cellular Transrepression Assay
[2] = Homo sapiens, A549, Cellular Transrepression Assay

Row | Compound | EC50 (Cellular Transrepression Assay) [nM] | EC50 [2] [nM] | AP-1 Max % inh (Cellular Transrepression Assay) (Cellular Transrepression Assay) [%] | Emax [1] [%]
1 | CC(C)(C(=O)Nc1nncs1)[C@H]1c2ccccc2Oc2nc(-c3ccc(C(=O)N4CCC[C@@H]4CO)cc3)ccc21 [Example 331] | – | 33.7 | – | 36.3
2 | CC(C)(C(=O)Nc1nncs1)[C@@H]1c2ccccc2Oc2cc(O)ccc21 [Example 95] | – | 574 | – | 52.2
3 | CCCCCCCCNC(=O)Oc1ccc2c(c1)Oc1ccccc1C2C(C)(C)C(=O)Nc1nncs1 (centres unmarked) [Example 374] | – | 30.9 | – | 50.9
4 | CC(C)(C(=O)Nc1nncs1)[C@H]1c2ccccc2Oc2nc(-c3ccc(C(=O)NC4CC4)cc3)ccc21 [Example 350] | – | 520 | – | 45.1
5 | COc1ccc2c(n1)Oc1ccccc1C2C(C)(C)C(=O)Nc1nc(-c2ccc(F)c3ccccc23)cs1 (centres unmarked) [Example 78] | – | 164 | – | 65.1
6 | CN(C)C(=O)c1ccc(-c2ccc3c(n2)Oc2ccccc2[C@@H]3C(C)(C)C(=O)Nc2nncs2)cc1F [Example 250] | – | 17.8 | – | 48.4
7 | CC(C)(C(=O)Nc1nncs1)[C@H]1c2ccccc2Oc2nc(-c3ccc(C(=O)N4CCCC4)c(Cl)c3)ccc21 [Example 341] | 14.8 | – | 50.27 | –
8 | CCOc1ccc(-c2ccc3c(n2)Oc2ccccc2C3C(C)(C)C(=O)Nc2nncs2)cc1 (centres unmarked) [Example 204] | 42.8 | – | 44.75 | –
9 | CC(C)(C(=O)Nc1nc(Cc2ccc(Br)cc2)cs1)C1c2ccccc2Oc2ccccc21 [Example 35] | – | 80.6 | – | 72.3
10 | CC(C)(C(=O)Nc1nncs1)[C@H]1c2ccccc2Oc2cc(O)ccc21 [Example 90] | – | 6.43 | – | 59.5
11 | CCCCNC(=O)Oc1ccc2c(c1)Oc1ccccc1C2C(C)(C)C(=O)Nc1nncs1 (centres unmarked) [Example 388] | – | 34.2 | – | 57.6
12 | Cc1nsc(NC(=O)C(C)(C)[C@H]2c3ccccc3Oc3nc(-c4ccc(C(=O)N5CCOCC5)cc4)ccc32)n1 [Example 478] | – | 16 | – | 41.8
13 | CC(C)(C(=O)Nc1nncs1)[C@H]1c2ccccc2Oc2nc(-c3ccc(C(=O)N4CCC(F)(F)CC4)c(F)c3)ccc21 [Example 334] | – | 3.36 | – | 36.2
14 | Cc1nnc(NC(=O)C(C)(C)[C@H]2c3ccccc3Oc3nc(-c4ccc(C(=O)N5CCOCC5)cc4)ccc32)s1 [Example 465] | – | 16.6 | – | 61.5
15 | CC(C)(C(=O)Nc1nncs1)[C@H]1c2ccccc2Oc2nc(-c3cccc(F)c3)ccc21 [Example 225] | 920 | – | 45.65 | –
16 | O=C(CC1c2ccccc2Sc2ccccc21)Nc1nc(-c2ccc(F)c3ccccc23)cs1 [Example 26] | – | – | – | 26.9
17 | CC(C)(C(=O)Nc1ncc(C#N)s1)[C@H]1c2ccccc2Oc2nc(-c3ccc(C(=O)N4CCCC4)c(F)c3)ccc21 [Example 410] | – | 53.3 | – | 48.1
18 | CC(C)(C(=O)Nc1nncs1)C1c2ccccc2Oc2cc(OC(=O)NCC3CCCCC3)ccc21 (centres unmarked) [Example 392] | 49.7 | – | 44.82 | –
19 | CN(C)C(=O)c1ccc(-c2ccc3c(n2)Oc2c(F)cccc2C3C(C)(C)C(=O)Nc2nncs2)cc1F (racemic) [Example 165] | 25.6 | – | 56.92 | –
20 | CC(C)(C(=O)Nc1nncs1)[C@H]1c2ccccc2Oc2nc(-c3ccc(C(=O)N4CC(O)C4)cc3)ccc21 [Example 315] | – | 750 | – | 40.9
21 | Cc1ccc(COC(=O)Nc2ccc3c(c2)Oc2ccccc2C3C(C)(C)C(=O)Nc2nncs2)cc1 (centres unmarked) [Example 121] | – | 59.5 | – | 44.8
22 | Cc1nnc(NC(=O)C(C)(C)[C@H]2c3ccccc3Oc3nc(-c4ccc(C(=O)N5CCC(F)(F)C5)c(F)c4)ccc32)s1 [Example 477] | – | 39.8 | – | 44.8
23 | CC(C)Oc1ccc(-c2ccc3c(n2)Oc2ccccc2[C@@H]3C(C)(C)C(=O)Nc2ncns2)cc1F [Example 459] | – | 102 | – | 35.4
24 | CC(C)(C(=O)Nc1nnc(C#N)s1)[C@H]1c2ccccc2Oc2nc(-c3ccc(C(=O)N4CCOCC4)cc3)ccc21 [Example 434] | 197 | – | 38.45 | –

More lines, main results first:

Row | EC50 (Cellular Transrepression Assay) [nM] | EC50 [2] [nM] | Compound | AP-1 Max % inh (Cellular Transrepression Assay) (Cellular Transrepression Assay) [%] | Emax [1] [%]
25 | 733 | – | CC(C)(C(=O)Nc1nncs1)C1c2ccccc2Oc2nc(-c3ccc(CC(=O)O)cc3)ccc21 (centres unmarked) [Example 231] | 38.36 | –
26 | 17.4 | – | CCN(C)C(=O)c1ccc(-c2ccc3c(n2)Oc2ccccc2C3C(C)(C)C(=O)Nc2nncs2)cc1 (centres unmarked) [Example 251] | 54.92 | –
27 | – | 566 | Cc1ccc(-c2csc(NC(=O)C(C)(C)C3c4ccccc4S(=O)(=O)c4ccccc43)n2)c2ccccc12 [Example 13] | – | 60.3
28 | – | 185 | CC(C)(C(=O)Nc1nncs1)[C@H]1c2ccccc2Oc2nc(-c3ccc(C(=O)N4CCC(F)(F)CC4)c(Cl)c3)ccc21 [Example 339] | – | 38.4
29 | – | 59.2 | CC(C)(C(=O)Nc1nncs1)[C@H]1c2ccccc2Oc2nc(-c3cn[nH]c3)ccc21 [Example 450] | – | 26.3
30 | – | 38.5 | Cc1nnc(NC(=O)C(C)(C)[C@H]2c3ccccc3Oc3nc(-c4ccc(C(=O)N(C)C)cc4)ccc32)s1 [Example 445] | – | 45.7
31 | – | 364 | CC(C)(C(=O)Nc1nncs1)[C@H]1c2ccccc2Oc2nc(C3=CCN(C(=O)N4CCCC4)CC3)ccc21 [Example 408] | – | 24.1
32 | – | 200 | CC(C)(C(=O)Nc1nccs1)C1c2ccccc2Oc2nc(N)ccc21 (centres unmarked) [Example 158] | – | 62.5
33 | – | 473 | Cc1ccc(-c2csc(NC(=O)C(C)(C)C3c4ccccc4-c4ccccc43)n2)c2ccccc12 [Example 20] | – | 46.9
34 | – | 25.3 | C[S+]([O-])c1ccc(-c2ccc3c(n2)Oc2ccccc2[C@@H]3C(C)(C)C(=O)Nc2nncs2)cc1 (some centres unmarked) [Example 241] | – | 46.8
35 | 27.6 | – | CSc1ccc(-c2ccc3c(n2)Oc2ccccc2C3C(C)(C)C(=O)Nc2nncs2)cc1 (centres unmarked) [Example 199] | 48.94 | –
36 | – | 90.2 | COC[C@H]1CCCN1C(=O)c1ccc(-c2ccc3c(n2)Oc2ccccc2[C@@H]3C(C)(C)C(=O)Nc2nncs2)cc1F [Example 325] | – | 56.1
37 | 36.3 | – | CC(=O)c1ccc(-c2ccc3c(n2)Oc2ccccc2C3C(C)(C)C(=O)Nc2nncs2)cc1 (centres unmarked) [Example 201] | 65.46 | –
38 | – | 18 | CC(C)(C(=O)Nc1nncs1)[C@H]1c2ccccc2Oc2nc(-c3ccc(C(=O)N4CCC(F)(F)C4)cc3)ccc21 [Example 314] | – | 69.8
39 | 105 | – | CCCCCc1ccc(-c2ccc3c(n2)Oc2ccccc2C3C(C)(C)C(=O)Nc2nncs2)cc1 (centres unmarked) [Example 220] | 52.23 | –
40 | – | 102 | COc1ccc2c(c1)Oc1ccccc1C2C(C)(C)C(=O)Nc1nc(-c2ccc(F)c3ccccc23)cs1 (centres unmarked) [Example 45] | – | 71.5
41 | 82.8 | – | CC(C)(C(=O)Nc1nncs1)C1c2ccccc2Oc2cc(OC(=O)NCCc3ccccc3)ccc21 (centres unmarked) [Example 375] | 51.24 | –
42 | – | 63.9 | CN(C)C(=O)c1ccc(-c2ccc3c(n2)Oc2ccccc2[C@@H]3C(C)(C)C(=O)Nc2ncns2)cc1 [Example 471] | – | 52.4
